Measurements: patent US9089570B2, “Compositions for treating cancers having acquired resitance to prior chemotherapeutic and targeted drugs using carboxyamidotriazole orotate” (TACTICAL THERAPEUTICS INC, priority 2013, dated 2015)

Key:
[1] = system: imatinib mesylate-resistant chronic myeloid leukemia cells; details: by down-regulating bcr-abl, Alessandro et al, 2008; cited from earlier work
[2] = system: refractory head and neck tumor (PI3KCA, E545K); assay: Phase I clinical study of CTO, patient with refractory head and neck cancer; assay type: in vivo, human; details: 285 mg/m2/day
Source text: “Progressive disease” is defined as an increase of 25% or greater in the product of the largest perpendicular diameters for at least one bidimensionally measurable tumor, or an increase of 25% or greater at least one undimensionally measurable tumor or appearance of a new lesion or clinical deterioration. […]

[3] = system: refractory NSCLC tumor (PI3KCA, E545K); assay: Phase I clinical study of CTO, patient with refractory NSCLC (PI3KCA, E545K); assay type: in vivo, human; details: 219 mg/m2/day
Protocol: (§1) This invention contemplates treating these cancers and other cancers at any stage from the discovery of the cancer to the advanced stage, starting with the first step of carrying out the genotyping of the primary and secondary tumors. The effectiveness of the CTO treatment is determined by controlled clinical studies. The cancers are evaluated by measuring tumors no more than 14 days before the start of the treatment, and evaluated after 2 cycles of 28 days after day 1 of the administration of the first dose of CTO. The tumor size is measured by the most accurate measurement such as PET-CT, CT scan, MRI scan, x-ray, ultrasound, etc. […]
(§2) “Partial response” means a) for bidimensionally measurable tumors, a decrease of at least 50% in the sum of the products of the largest perpendicular diameters of all measurable tumors as determined by two observations not less than four weeks apart, b) for undimensionally measurable tumors, a decrease by at least 50% in the sum of the largest diameters of all tumors as determined by two observation not less than four weeks apart. […]
In the present invention, a patient with NSCLC who had received prior treatment with paclitaxel, carboplatin erlotinib and docetaxel. […] After having established the baseline clinical parameters, the patient was given 219 mg/m2/day for a period of 28 days for two cycles and the tumor was measured. […]

[4] = system: refractory NSCLC tumor (EGFR, ELREATS 746-752 V (exon 19)); assay: Phase I clinical study of CTO, patient with refractory NSCLC (EGFR exon 19); assay type: in vivo, human; details: EGFR exon 19 mutation, 219 mg/m2/day
Protocol: as §1, with “etc. The criteria for evaluating response are described in the revised Response Evaluation Criteria in Solid Tumors Guidelines, Eisenhauer et al, 1990 and by the Macdonald Criteria for response to high grade gliomas, Macdonald et al, 1990.” for “etc.”
as §2

[5] = system: refractory metastatic colorectal cancer (BRAF V660E); assay: Phase I clinical study of CTO, patient with refractory metastatic colorectal cancer; assay type: in vivo, human; details: 285 mg/m2/day
Protocol: as §1, §2
After having established the baseline clinical parameters, the patient was given 285 mg/m2/day for a period of 28 days for two cycles and the tumor was measured. […]

[6] = system: refractory renal cell carcinoma; assay: Phase I clinical study of CTO, patient with refractory renal cell carcinoma; assay type: in vivo, human; details: 75 mg/m2/day
Protocol: as §1, §2
After having established the baseline clinical parameters, the patient was given 75 mg/m2/day for a period of 28 days for two cycles and the tumor was measured. […]

[7] = system: Akt and Erk1/2 phosphorylation; details: exosomes-stimulated HUVEC cell; Corrado et al, 2012; cited from earlier work
[8] = FOLFIRI (fluorouracil, leucovorin, irinotecan) regimen; Carrato et al 2013; cited from earlier work
[9] = system: head and neck cancer; details: cited from earlier work

NC(=O)c1nnn(Cc2cc(Cl)c(C(=O)c3ccc(Cl)cc3)c(Cl)c2)c1N [CAI, Carboxyamidotriazole]
apoptosis [1]: induces apoptosis

NC(=O)c1nnn(Cc2cc(Cl)c(C(=O)c3ccc(Cl)cc3)c(Cl)c2)c1N.O=C(O)c1cc(=O)[nH]c(=O)[nH]1 [CTO, carboxyamidotriazole orotate]
duration of stable disease and partial response ([2]; 28-day cycles): more than six | tumor response measured after two cycles ([2]; PI3KCA E545K, prior cetuximab, cisplatin, taxotere, 28 days, two cycles): responded by not progressing | duration of stable disease and partial response ([3]; 28-day cycles): more than twelve | tumor response measured after two cycles ([3]; prior paclitaxel, carboplatin, erlotinib, docetaxel, 28 days, two cycles): responded by not progressing | duration of stable disease and partial response ([4]; 28-day cycles): more than twelve | tumor response measured after two cycles ([4]; prior carboplatin, paclitaxel, docetaxel, erlotinib, cisplatin, gemcitamide, premetrexed, 28 days, two cycles): responded by not progressing | duration of stable disease and partial response ([5]; 28-day cycles): six | tumor response measured after two cycles ([5]; prior leucovorin, fluorouracil, oxaliplatin, bevacizumab, cetuximab, capecitabine, panitumumab, irinotecan, 28 days, two cycles): responded to CTO by not progressing | duration of stable disease and partial response ([6]; 28-day cycles, CTO continued): over twelve | tumor response measured after two cycles ([6]; prior IL-2, pegylated IFN, sorafenib, sunitnib, erlotinib, torisel, 28 days, two cycles): responded by not progressing | Akt and Erk1/2 phosphorylation [7]: inhibits

CCN(CC)CCNC(=O)c1c(C)[nH]c(/C=C2\C(=O)Nc3ccc(F)cc32)c1C [Sunitnib]
superiority over FOLFIRI alone [8]: did not prove superior over FOLFIRI alone

C#Cc1cccc(Nc2ncnc3cc(OCCOC)c(OCCOC)cc23)c1 [erlotinib]
improvement when added to chemotherapy and radiotherapy [9]: no improvement
